Like-named read-outs stand apart in the source and are kept apart here.
Target: T1, alpha7 nAChR (Rattus norvegicus, UniProt Q05941)
T1 construct: expressed in transfected cells
Assay: cell-based
Excerpt: Rat GH4C1 cells were then transfected with the rat receptor, cloned and analyzed for functional alpha7 nicotinic receptor expression employing a FLIPR assay to measure changes in intracellular calcium concentrations.
The FLIPR system allows the measurements of real time Ca^2+-concentration changes in living cells using a Ca^2+ sensitive fluorescence dye (such as Fluo4). This instrument enables the screening for agonists and antagonists for alpha 7 nAChR channels stably expressed in GH4Cl cells.
GH4Cl cells stably transfected with rat- alpha7-nAChR (see above) were used. These cells are poorly adherent and therefore pretreatment of flasks and plates with poly-D-lysine was carried out. Cells are grown in 150 cm^2 T-flasks, filled with 30 ml of medium at 37°C and 5% CO2.
EC50 and IC50 values were calculated using the IDBS XLfit4.1 software package employing a sigmoidal concentration-response (variable slope) equation: Y = Bottom + ((Top-Bottom)/(1+(((EC50/X))^(∧)⁢HillSlope)). [formula]
The compounds were tested using the functional FLIPR primary screening assay employing the stable recombinant GH4C1 cell line expressing the alpha7 nAChR. Hits identified were validated further by generation of concentration-response curves.

T1 sequence (Q05941 23-502): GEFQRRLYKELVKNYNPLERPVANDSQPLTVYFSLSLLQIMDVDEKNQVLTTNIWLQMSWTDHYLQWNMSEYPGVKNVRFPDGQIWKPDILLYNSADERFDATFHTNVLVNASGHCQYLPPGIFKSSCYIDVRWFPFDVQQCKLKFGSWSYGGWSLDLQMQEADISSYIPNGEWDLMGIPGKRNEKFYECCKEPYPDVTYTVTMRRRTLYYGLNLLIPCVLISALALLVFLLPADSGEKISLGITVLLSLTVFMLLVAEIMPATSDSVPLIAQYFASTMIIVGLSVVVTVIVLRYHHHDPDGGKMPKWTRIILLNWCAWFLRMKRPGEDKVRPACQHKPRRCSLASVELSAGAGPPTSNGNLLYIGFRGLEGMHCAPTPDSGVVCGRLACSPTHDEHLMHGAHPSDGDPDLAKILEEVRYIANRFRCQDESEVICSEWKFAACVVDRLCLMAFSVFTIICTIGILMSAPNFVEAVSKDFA

Row | SMILES | EC50 | EC50 (agonist concentration-response, 0.001 to 30 microM, alpha7 nAChR stably expressed in GH4C1 cells, read-out: EC50)
1 | C[N+](C)(C)CCO [Choline, choline] | 24.2 ± 8.3 µM | 
2 | O=c1cccc2n1C[C@@H]1CNC[C@H]2C1 [Cytisine, cytisine] | 1.21 ± 0.13 µM | 
3 | C[N+]1(C)CCN(c2ccccc2)CC1 [DMPP] |  | 0.98 ± 0.47 µM
